Data as given in patent US20240352066A1, “ANTIMICROBIAL COMPOUNDS AND THE METHOD OF USE” (priority 2021, published 2024).
Values after ≈ are worked out from the molar mass of the structure shown. Where a SMILES comes first, the peptide text is derived from it. [ ]: non-standard residue; d: D form. N(tridecyl)Gly = CCCCCCCCCCCCCNCC(=O)O; Gly(N-2-aminoethyl) = NCCNCC(=O)O; Gly(N-cHex) = O=C(O)CNC1CCCCC1; Nleu = CC(C)CNCC(=O)O; Nlys = NCCCCNCC(=O)O

How the values were obtained:
[1] = Percent acetonitrile at elution during RP-HPLC purification (hydrophobicity); assay type: physicochemical; conditions: percent acetonitrile at the time of elution from HPLC
Excerpt: All RMG8-8 derivatives were synthesized via the solid-phase submonomer synthesis method on polystyrene Rink Amide resin (Zuckermann et al. Journal of the American Chemical Society 114, 10646-10647 (1992)). The amines used during synthesis and the peptoid shorthand notations for each monomer are provided in Table 7 and Table 8, respectively. Compounds were purified to greater than 95% by RP-HPLC and compound identity was confirmed by ESI-TOF MS (Table 9). The calculated distribution coefficient at pH 7.4 (c Log D7.4) (via Chemaxon. MarvinSketch 19.17.0, 2019) and the percent acetonitrile at the time of elution during HPLC purification were recorded and serve as measures of hydrophobicity (Table 10). Higher values for c Log D7.4 and percent acetonitrile are indicators of increased compound hydrophobicity. With antimicrobial peptoids, hydrophobicity is directly related to both antimicrobial activity and cytotoxicity (Andreev et al. Biochimica et biophysica acta. Biomembranes 1860 6, 1414-1423 (2018); Bolt et al. Med chem comm 8, 886-896 (2017); Frederiksen et al. Molecules 24, (2019)). The ideal balance of these parameters generally must be determined experimentally. To measure antifungal activity, the minimum inhibitory concentration (MIC), defined as the concentration of compound required to inhibit 90% of fungal growth, was determined against C. neoformans using the broth microdilution method. Mammalian cytotoxicity was evaluated through a cell metabolic activity assay with HepG2 liver carcinoma cells, and select, potentially promising compounds were tested for unwanted hemolytic activity against human red blood cells.
Peptoids were purified via Reversed-Phase High-Performance Liquid Chromatography (RP-HPLC) using a Varian Prepstar SD-1. A gradient of 0-100% water to acetonitrile containing 0.05% TFA made up the mobile phase, and a Supelco Ascentis C18 column (5 μm; 25 cm×21.2 mm; Sigma-Aldrich 581347-U) was used as the stationary phase. Peaks in the chromatogram above 0.1 AU were collected and analyzed via mass spectrometry. The peak product with the desired peptoid was dried down in vacuo and lyophilized overnight. Peptoids were then reconstituted in sterile […] deionized water to create compound stocks of 20 mg/mL.

C. albicans = assay type: cell-based, Candida albicans; conditions: 24 h
Method: 2-fold serial dilutions of 100× peptoid solutions were prepared in water and 2 μL of peptoid were added to each well in triplicate. […] MIC was defined as the lowest concentration of compound preventing fungal growth. This assay was repeated 3 times on separate days with each compound.

[2] = system: HepG2 hepatocellular carcinoma cells; test: Mammalian cytotoxicity, MTT, HepG2; assay type: cell-based, human
Procedure, shortened: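 HepG2 cells (1×10^5 cells/mL, phenol-red-free DMEM, 10% FBS) were exposed to 2-fold dilutions of compound at 1.56–200 μg/mL final, in triplicate, for 72 h at 37 °C, 5% CO2. MTT was added for 3 h and, after DMSO solubilization, absorbance was read at 570 nm. TD50 is the concentration giving a 50% growth reduction versus the water vehicle, reported as the mean of biological replicates ± SD.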

[3] = system: HepG2 hepatocellular carcinoma cells; conditions: RMG8-8, previously published results (Green et al. 2021); cited from earlier work
HaCat keratinocyte cells = test: in vitro; assay type: cell-based, human
Method: (§1) Hepatocellular carcinoma (HepG2), mouse fibroblast (3T3), human lung (HPL1A), and human keratinocyte (HaCat) cells were cultured in Dulbecco modified eagle media (DMEM) containing 10% fetal bovine serum (FBS) and 1% penicillin, streptomycin, and glutamine (PSG) at 37° C. and 5% CO2. Cells were collected and adjusted to […] to 4×10^5 cells/mL in phenol-red free DMEM and plated (100 μL) 96 well plates. 2-fold serial dilutions of 10× peptoid (11.1 μL) were added to each well in triplicate. Water (vehicle) was used as a negative control. Plates were incubated at 37° C. in 5% CO2 for 72 hours. Thiazolyl blue tetrazolium bromide (MTT) was added to each well (5 mg/mL; 20 μL) and incubated for 3 hours. Media was removed, DMSO (100 μL) was added, and plates were incubated at 37° C. for 10 minutes. Plates were read on a SpectraMax M5 plate reader (Abs. 570 nm). The concentration of compound resulting in a 50% reduction in growth compared to control (toxicity dose 50%; TD50) was determined using GraFit. This procedure was repeated three times on separate days.

in vitro = assay type: cell-based, human; conditions: human
Method: as §1

HPL1A lung cells = test: in vitro; assay type: cell-based, human
Method: as §1

SMILES	% ACN [1] [%]	MIC C. albicans (C. albicans) [µg/mL]	proteolytic degradation / protein binding in human serum	TD50 HepG2 [2] [µg/mL]	HepG2 TD50 [3] [µg/mL]	TD50 HaCat (HaCat keratinocyte cells) [µg/mL]	CC50 at 72 h (in vitro; HPL1A lung cells) [µg/mL]	CC50 at 72 h (in vitro; HaCat keratinocyte cells) [µg/mL]	TD50 HPL1A (HPL1A lung cells) [µg/mL]
CCCCCCCCCCCCCNCC(=O)N(CC(=O)N(CCCCN)CC(=O)N(CCN)CC(=O)N(CC(N)=O)CC(C)C)CC(C)C [Compound 9] (H-[N(tridecyl)Gly][Nleu][Nlys][Gly(N-2-aminoethyl)][Nleu]-NH2)	68.1								
CCCCCCCCCCCCCNCC(=O)N(CC(=O)N(CCCCN)CC(=O)N(CCN)CC(=O)N(CC(N)=O)C1CCCCC1)C1CCCCC1 [RMG8-8, Ntri-Ncha-Nlys-Nae-Ncha] (H-[N(tridecyl)Gly][Gly(N-cHex)][Nlys][Gly(N-2-aminoethyl)][Gly(N-cHex)]-NH2)		25 (≈ 32.8 µM)	No proteolytic degradation or significant protein binding	189	189 ± 43	54	74 ± 8 (≈ 97 µM)	54 ± 10 (≈ 70.8 µM)	74
